Tests used:
[1] = system: GST-HIF-2α PAS-B* and ARNT PAS-B*-FLAG domains (HIF-2α–ARNT heterodimerization); test: AlphaScreen luminescence proximity assay of HIF-2α–ARNT PAS-B heterodimerization; settings: for IC50: read-out: AlphaScreen IC50, disruption of HIF-2α PAS-B*–ARNT PAS-B* heterodimer; for AlphaScreen activity (in words): disruption of HIF-2α–ARNT heterodimerization
HIF-2α PAS-B domain = HIF-2α PAS-B domain (Homo sapiens, UniProt Q99814); test: Isothermal titration calorimetry; assay type: binding; settings: for weakening of binding relative to compound 32: ITC data, compared with 32
Solubility observation = assay type: physicochemical

HIF-2α PAS-B domain, sequence (Q99814 240-350 limits assumed): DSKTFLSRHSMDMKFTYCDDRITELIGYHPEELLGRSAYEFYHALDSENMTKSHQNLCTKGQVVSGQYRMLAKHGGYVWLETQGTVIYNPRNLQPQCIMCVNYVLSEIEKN

With `Cc1ccc(CNc2ccc3nonc3c2[N+](=O)[O-])cc1` [Compound 4] the IC50 [1] was over 30 µM.
Molecule `O=[N+]([O-])c1c(NCc2c(F)cccc2Cl)ccc2nonc12` [Compound 7] has an IC50 [1] of over 30 µM.
Work on `O=[N+]([O-])c1c(NCc2cc(F)ccc2C(F)(F)F)ccc2nonc12` [Compound 11] yielded an IC50 [1] of over 30 µM.
`COc1cccc(Nc2ccc3nonc3c2[N+](=O)[O-])c1` [Compound 16] gave an IC50 [1] of over 30 µM.
`O=[N+]([O-])c1c(Nc2ccc(F)cc2)ccc2nonc12` [Compound 17] gave an IC50 [1] of over 30 µM.
`O=[N+]([O-])c1c(Nc2ccc(Cl)cc2)ccc2nonc12` [Compound 18] showed an IC50 [1] of over 30 µM.
With `O=[N+]([O-])c1c(Nc2cccc(Cl)c2)ccc2nonc12` [Compound 19] the “weakening of binding relative to compound 32” value (HIF-2α PAS-B domain) was “two fold reduction in affinity”.
Molecule `O=[N+]([O-])c1c(Nc2ccc(Br)cc2)ccc2nonc12` [Compound 20] has an IC50 [1] of over 30 µM.
For `O=[N+]([O-])c1c(Nc2cccc(F)c2)ccc2nonc12` [Compound 23], the “weakening of binding relative to compound 32” value (HIF-2α PAS-B domain) was 25 fold.
For `O=[N+]([O-])c1c(Nc2ccc(C(F)(F)F)cc2Cl)ccc2nonc12` [Compound 24], the IC50 [1] was over 30 µM.
In the case of `O=[N+]([O-])c1c(Nc2cc(F)cc(F)c2)ccc2nonc12` [Compound 30], the “weakening of binding relative to compound 32” value (HIF-2α PAS-B domain) is reported as 8 fold.
For `Fc1cc(Cl)cc(Nc2ccc3nonc3c2)c1` [Compound 46], the “AlphaScreen activity (in words)” value [1] was “weak activity” and the “solubility (in words)” value (Solubility observation) was “relatively insoluble”.
With `Nc1c(Nc2cc(F)cc(Cl)c2)ccc2nonc12` [Compound 47] the “AlphaScreen activity (in words)” value [1] was “weak activity”, the “solubility (in words)” value (Solubility observation) was “relatively insoluble” and the “worsening of binding and disruption relative to compound 32” value (HIF-2α PAS-B domain; binding and disruption, NO2 replaced by NH2, compared with 32) was 30–60 fold.
`CC(=O)Nc1c(Nc2cc(F)cc(Cl)c2)ccc2nonc12` [Compound 48] showed an IC50 [1] of over 30 µM.
`O=C(CCl)Nc1c(Nc2cc(F)cc(Cl)c2)ccc2nonc12` [Compound 49] gave an IC50 [1] of over 30 µM.
Molecule `O=C1C=CC(=O)N1c1c(Nc2cc(F)cc(Cl)c2)ccc2nonc12` [Compound 50] has an IC50 [1] of over 30 µM.
In the case of `CNS(=O)(=O)c1c(Nc2cc(F)cc(Cl)c2)ccc2nonc12` [Compound 54], the “AlphaScreen activity (in words)” value [1] is reported as “inactive as disruptors” and the IC50 [1] is reported as over 30 µM.
For `CN(C)S(=O)(=O)c1c(Nc2cc(F)cc(Cl)c2)ccc2nonc12` [Compound 55], the “AlphaScreen activity (in words)” value [1] was “inactive as disruptors”.

From publication PMC3676484 (Journal of medicinal chemistry, 2013)
